Data taken from patent US9221832B2, “Heterocyclic amide derivatives as P2X7 receptor antagonists” (ACTELION PHARMACEUTICALS LTD., priority 2011, dated 2015).

molecular target: human recombinant P2X7 receptor (Homo sapiens (Human), UniProt Q99572); experiment: YO-PRO assay: P2X7 receptor antagonistic activity; type: cell-based; details: HEK cells expressing human P2X7
Method: The P2X7 receptor antagonistic activity of the compounds of formula (I) is determined in accordance with the following experimental method.
Cell Line Generation and YO-PRO Assay
Cell line generation was performed in general according to established molecular cloning protocols. Specifically, RNA was extracted from human whole blood using the Qiagen RNeasy kit (Qiagen, CH) according to the manufacturer's instructions. Subsequently cDNA was made (Superscript II, Invitrogen AG, CH) and the human P2X7 gene (genbank ref. BC011913) was amplified with the following primers: […] and […]. The amplified sequence was subsequently ligated into a pcDNA3.1 (+) NotI, NheI digested plasmid. […] Following a 24 h exposure to DNA, cells were trypsinized and re-seeded at low density in the presence of 250 μg Geneticin. Geneticin resistant cells were then selected during two consecutive rounds of cloning by serial limiting dilution with visual inspection. Individual clones were screened for P2X7 expression by applying ATP and recording the resultant uptake of YO-PRO1. Specific cell clones were chosen based on RNA and protein expression. HEK cells stably expressing P2X7 were used to screen drugs using the YO-PRO1 assay. Cells were grown to confluency in adherent culture at 37° C. in a humidified 5% CO2 incubator (split 1/5 every 3-4 days with DMEM, 10% FCS, 1% Penicillin/Streptomycin, 250 μg/ml Geneticin). Adherent cells were detached by incubation with Trypsine (1 ml per 165 cm^2 dish) for 2 minutes, then washed off with 10 ml PBS (without Mg^2+ and Ca^2+), and resuspended in DMEM, 10% FCS, 1% Penicillin/Streptomycin, no Geneticin. […] During this time period, four time points were taken. Each time point comprised the average of several measurements made within a few seconds. […] The FLIPR tetra was equipped with Molecular Devices Screen Works system control software to define and run experimental protocols. […] For IC50 measurements the maximum intensity is plotted against the concentration of compound to determine IC50 values.

Sequence of human recombinant P2X7 receptor (Q99572 whole entry): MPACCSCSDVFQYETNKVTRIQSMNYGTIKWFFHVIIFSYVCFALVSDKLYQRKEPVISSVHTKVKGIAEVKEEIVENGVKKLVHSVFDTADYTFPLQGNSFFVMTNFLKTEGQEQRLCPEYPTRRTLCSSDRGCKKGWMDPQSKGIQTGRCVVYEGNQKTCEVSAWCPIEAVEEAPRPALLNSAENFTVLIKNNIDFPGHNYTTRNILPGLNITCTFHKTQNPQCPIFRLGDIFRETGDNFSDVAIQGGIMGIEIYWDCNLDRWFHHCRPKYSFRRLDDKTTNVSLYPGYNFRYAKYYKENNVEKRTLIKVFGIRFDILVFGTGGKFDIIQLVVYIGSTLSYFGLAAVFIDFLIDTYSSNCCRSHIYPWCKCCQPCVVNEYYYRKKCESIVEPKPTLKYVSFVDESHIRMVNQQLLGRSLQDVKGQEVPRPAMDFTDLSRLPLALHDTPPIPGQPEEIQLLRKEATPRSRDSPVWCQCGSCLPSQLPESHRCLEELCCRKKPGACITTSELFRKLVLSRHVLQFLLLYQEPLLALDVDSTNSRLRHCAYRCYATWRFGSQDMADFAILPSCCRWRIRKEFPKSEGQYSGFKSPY

| Compound | IC50 [nM] |
| --- | --- |
| O=C(NC1CCOc2ncccc21)C1(c2ccc(Cl)cc2Cl)CC1 (racemic) [Example 58, rac-1-(2,4-Dichloro-phenyl)-cyclopropanecarboxylic acid (3,4-dihydro-2H-pyrano[2,3-b]pyridin-4-yl)-amide] | 294 |
| O=C(NC1CCOc2ncccc21)C1(c2ccc(F)cc2Cl)CCCC1 (racemic) [Example 59, rac-1-(2-Chloro-4-fluoro-phenyl)-cyclopentanecarboxylic acid (3,4-dihydro-2H-pyrano[2,3-b]pyridin-4-yl)-amide] | 390 |
| O=C(Cc1cccnc1Cl)NC1CCOc2ncccc21 (racemic) [Example 60, rac-2-(2-Chloro-pyridin-3-yl)-N-(3,4-dihydro-2H-pyrano[2,3-b]pyridin-4-yl)-acetamide] | 780 |
| Cc1ccc(OCC(=O)NC2CCOc3ncccc32)c(C)n1 (racemic) [Example 61, rac-N-(3,4-Dihydro-2H-pyrano[2,3-b]pyridin-4-yl)-2-(2,6-dimethyl-pyridin-3-yloxy)-acetamide] | 814 |
| Cc1cc(CC(=O)NC2CCOc3ncccc32)on1 (racemic) [Example 62, rac-N-(3,4-Dihydro-2H-pyrano[2,3-b]pyridin-4-yl)-2-(3-methyl-isoxazol-5-yl)-acetamide] | 2080 |
| Cc1ccnn1CC(=O)NC1CCOc2ncccc21 (racemic) [Example 63, rac-N-(3,4-Dihydro-2H-pyrano[2,3-b]pyridin-4-yl)-2-(5-methyl-pyrazol-1-yl)-acetamide] | > 5720 |
| O=C(CCc1ccc(Cl)cc1Cl)NC1CCOc2ncccc21 (racemic) [Example 65, rac-3-(2,4-Dichloro-phenyl)-N-(3,4-dihydro-2H-pyrano[2,3-b]pyridin-4-yl)-propionamide] | 3010 |
| O=C(Cc1c(F)ccc(Cl)c1Cl)NC1COc2ncccc21 (racemic) [Example 67, rac-2-(2,3-Dichloro-6-fluoro-phenyl)-N-(2,3-dihydro-furo[2,3-b]pyridin-3-yl)-acetamide] | 210 |
| O=C(Cc1c(F)cccc1C(F)(F)F)NC1COc2ncccc21 (racemic) [Example 68, rac-N-(2,3-Dihydro-furo[2,3-b]pyridin-3-yl)-2-(2-fluoro-6-trifluoromethyl-phenyl)-acetamide] | 1830 |
| O=C(Cc1c(F)cc(Cl)cc1Cl)NC1CCOc2ncccc21 (racemic) [Example 70, rac-2-(2,4-Dichloro-6-fluoro-phenyl)-N-(3,4-dihydro-2H-pyrano[2,3-b]pyridin-4-yl)-acetamide] | 386 |
| O=C(Cc1c(C(F)(F)F)ccc(Cl)c1Cl)NC1COc2ncccc21 (racemic) [Example 71, rac-2-(2,3-Dichloro-6-trifluoromethyl-phenyl)-N-(2,3-dihydro-furo[2,3-b]pyridin-3-yl)-acetamide] | 3230 |
| O=C(Cc1c(Cl)ccc(C(F)(F)F)c1Cl)NC1COc2ncccc21 (racemic) [Example 72, rac-2-(2,6-Dichloro-3-trifluoromethyl-phenyl)-N-(2,3-dihydro-furo[2,3-b]pyridin-3-yl)-acetamide] | 1020 |
| N#Cc1cccc(CC(=O)NC2COc3ncccc32)c1Cl (racemic) [Example 75, rac-2-(2-Chloro-3-cyano-phenyl)-N-(2,3-dihydro-furo[2,3-b]pyridin-3-yl)-acetamide] | 22 |
| O=C(Cc1c(F)cc(Cl)cc1Cl)NC1COc2ncccc21 (racemic) [Example 76, rac-2-(2,4-Dichloro-6-fluoro-phenyl)-N-(2,3-dihydro-furo[2,3-b]pyridin-3-yl)-acetamide] | 90 |
| O=C(Cc1c(Cl)ccc(Cl)c1F)NC1COc2ncccc21 (racemic) [Example 77, rac-2-(3,6-Dichloro-2-fluoro-phenyl)-N-(2,3-dihydro-furo[2,3-b]pyridin-3-yl)-acetamide] | 2480 |
| O=C(Cc1c(F)ccc(F)c1Cl)NC1COc2ncccc21 (racemic) [Example 78, rac-2-(2-Chloro-3,6-difluoro-phenyl)-N-(2,3-dihydro-furo[2,3-b]pyridin-3-yl)-acetamide] | 665 |
| NC(=O)c1cccc(CC(=O)NC2COc3ncccc32)c1Cl (racemic) [Example 80, rac-2-Chloro-3-[(2,3-dihydro-furo[2,3-b]pyridin-3-ylcarbamoyl)-methyl]-benzamide] | 1240 |
| O=C(CCCc1ccc(F)cc1)NC1COc2ncccc21 (racemic) [Example 82, rac-N-(2,3-Dihydro-furo[2,3-b]pyridin-3-yl)-4-(4-fluoro-phenyl)-butyramide] | 2030 |
| O=C(Cc1cccc(C(F)(F)F)c1Cl)NC1COc2cnccc21 (racemic) [Example 87, rac-2-(2-Chloro-3-trifluoromethyl-phenyl)-N-(2,3-dihydro-furo[2,3-c]pyridin-3-yl)-acetamide] | 4.6 |
| O=C(Cc1ccc(C(F)(F)F)cc1Cl)NC1COc2ncccc21 (racemic) [Example 88, rac-2-(2-Chloro-4-trifluoromethyl-phenyl)-N-(2,3-dihydro-furo[2,3-b]pyridin-3-yl)-acetamide] | 72 |
| Cc1cc(Cl)cc(Cl)c1CC(=O)NC1COc2cnccc21 (racemic) [Example 89, rac-2-(2,4-Dichloro-6-methyl-phenyl)-N-(2,3-dihydro-furo[2,3-c]pyridin-3-yl)-acetamide] | 3.2 |
| O=C(Cc1cccc(C(F)(F)F)c1F)NC1COc2ncccc21 (racemic) [Example 90, rac-N-(2,3-Dihydro-furo[2,3-b]pyridin-3-yl)-2-(2-fluoro-3-trifluoromethyl-phenyl)-acetamide] | 92 |

More lines, now with the values ahead:

| IC50 [nM] | Compound |
| --- | --- |
| 123 | N#Cc1ccc(CC(=O)NC2COc3ncccc32)c(Cl)c1 (racemic) [Example 96, rac-2-(2-Chloro-4-cyano-phenyl)-N-(2,3-dihydro-furo[2,3-b]pyridin-3-yl)-acetamide] |
| 15 | O=C(Cc1cccc(Cl)c1C(F)(F)F)NC1COc2ncccc21 (racemic) [Example 97, rac-2-(3-Chloro-2-trifluoromethyl-phenyl)-N-(2,3-dihydro-furo[2,3-b]pyridin-3-yl)-acetamide] |
| 52 | Cc1nccc2c1OCC2NC(=O)Cc1ccc(Cl)cc1Cl (racemic) [Example 100, rac-2-(2,4-Dichloro-phenyl)-N-(7-methyl-2,3-dihydro-furo[2,3-c]pyridin-3-yl)-acetamide] |
| 16 | O=C(Cc1c(Cl)cc(Cl)cc1CO)NC1COc2ncccc21 (racemic) [Example 103, rac-2-(2,4-Dichloro-6-hydroxymethyl-phenyl)-N-(2,3-dihydro-furo[2,3-b]pyridin-3-yl)-acetamide] |
| 71 | O=C(Cc1ccc(Cl)cc1Cl)NC1COc2c1ccnc2C1CC1 (racemic) [Example 104, rac-N-(7-Cyclopropyl-2,3-dihydro-furo[2,3-c]pyridin-3-yl)-2-(2,4-dichloro-phenyl)-acetamide] |
| 248 | COc1nccc2c1OCC2NC(=O)Cc1ccc(Cl)cc1Cl (racemic) [Example 105, rac-2-(2,4-Dichloro-phenyl)-N-(7-methoxy-2,3-dihydro-furo[2,3-c]pyridin-3-yl)-acetamide] |
| 52 | O=C(Cc1ccc(Cl)cc1Cl)NC1COc2c1ccnc2Cl (racemic) [Example 106, rac-N-(7-Chloro-2,3-dihydro-furo[2,3-c]pyridin-3-yl)-2-(2,4-dichloro-phenyl)-acetamide] |
| 31 | N#Cc1c(F)ccc(CC(=O)NC2COc3ncccc32)c1Cl (racemic) [Example 107, rac-2-(2-Chloro-3-cyano-4-fluoro-phenyl)-N-(2,3-dihydro-furo[2,3-b]pyridin-3-yl)-acetamide] |
| 71 | O=C(Cc1cccc(OC(F)(F)F)c1Cl)NC1COc2ncccc21 (racemic) [Example 108, rac-2-(2-Chloro-3-trifluoromethoxy-phenyl)-N-(2,3-dihydro-furo[2,3-b]pyridin-3-yl)-acetamide] |
| 6.7 | Cc1cc(Cl)cc(Cl)c1CC(=O)NC1COc2nnccc21 (racemic) [Example 110, rac-2-(2,4-Dichloro-6-methyl-phenyl)-N-(5,6-dihydro-furo[2,3-c]pyridazin-5-yl)-acetamide] |
| 416 | CC(=O)c1cccc(CC(=O)NC2COc3ncccc32)c1Cl (racemic) [Example 111, rac-2-(3-Acetyl-2-chloro-phenyl)-N-(2,3-dihydro-furo[2,3-b]pyridin-3-yl)-acetamide] |
| 219 | N#Cc1c(Cl)ccc(CC(=O)NC2COc3ncccc32)c1Cl (racemic) [Example 112, rac-2-(2,4-Dichloro-3-cyano-phenyl)-N-(2,3-dihydro-furo[2,3-b]pyridin-3-yl)-acetamide] |
| 28 | N#Cc1cccc(CC(=O)NC2COc3ncccc32)c1C(F)(F)F (racemic) [Example 113, rac-2-(3-Cyano-2-trifluoromethyl-phenyl)-N-(2,3-dihydro-furo[2,3-b]pyridin-3-yl)-acetamide] |
